Values of other authors, collected in patent US20170296666A1, “Stable Pharmaceutical Composition Of Amorphous Ticagrelor” (Amneal Pharmaceuticals Company GmbH, priority 2016, published 2017).

Conditions: class IV = low solubility and low permeability

Compound: CCCSc1nc(N[C@@H]2C[C@H]2c2ccc(F)c(F)c2)c2nnn([C@@H]3C[C@H](OCCO)[C@@H](O)[C@H]3O)c2n1 [Ticagrelor, (1S,2S,3R,5S)-3-[7-{[(1/R,2S)-2-(3,4-difluorophenyl)cyclopropyl]amino}-5 (propylthio)-3H-[1,2,3]-triazolo[4,5-d]pyrimidin-3-yl]-5-(2-hydroxyethoxy) cyclopentane-1,2-diol]
- Biopharmaceutics Classification System (BCS) class: class IV
